Where a name gives a salt, the structure may show the parent alone.
Tests used:
cdk2/cyclin E = cdk2/cyclin E (Homo sapiens, UniProt P24941); assay: Cyclin-dependent kinase assay, cdk2/cyclin E; details: CDK2 IC50, nM, GST-pRb substrate, 10 µM ATP
MDA-MB-435 = assay: In vitro proliferation assay (MTT), MDA-MB-435; format: cell-based, human; details: Homo sapiens, MDA-MB-435, MTT assay; value (SD, n) where given; read-out: MB-435 Breast (IC50 µM)
Summary of the method: (§1)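 Tetrazolium (MTT) reduction measures live cells remaining after 3 days with test compound, following overnight attachment at 1000–2500 cells/well. Dye is taken up in DMSO and read at 570 nm.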

cdk1/cyclin B = cdk1/cyclin B (Homo sapiens, UniProt P06493); assay: Cyclin-dependent kinase assay, cdk1/cyclin B; details: CDK1 IC50, nM, Histone H1, 10 µM ATP
Sequence of cdk1/cyclin B (P06493 whole entry): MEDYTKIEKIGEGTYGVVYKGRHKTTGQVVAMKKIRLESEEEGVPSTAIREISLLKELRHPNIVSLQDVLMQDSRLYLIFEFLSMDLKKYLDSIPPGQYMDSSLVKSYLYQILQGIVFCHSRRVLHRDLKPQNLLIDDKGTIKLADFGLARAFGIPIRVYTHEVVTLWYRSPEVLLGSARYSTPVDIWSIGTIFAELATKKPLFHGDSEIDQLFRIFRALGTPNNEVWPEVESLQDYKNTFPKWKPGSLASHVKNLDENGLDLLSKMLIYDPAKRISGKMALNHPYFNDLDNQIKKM
Sequence of cdk1/cyclin B (P14635 whole entry partner): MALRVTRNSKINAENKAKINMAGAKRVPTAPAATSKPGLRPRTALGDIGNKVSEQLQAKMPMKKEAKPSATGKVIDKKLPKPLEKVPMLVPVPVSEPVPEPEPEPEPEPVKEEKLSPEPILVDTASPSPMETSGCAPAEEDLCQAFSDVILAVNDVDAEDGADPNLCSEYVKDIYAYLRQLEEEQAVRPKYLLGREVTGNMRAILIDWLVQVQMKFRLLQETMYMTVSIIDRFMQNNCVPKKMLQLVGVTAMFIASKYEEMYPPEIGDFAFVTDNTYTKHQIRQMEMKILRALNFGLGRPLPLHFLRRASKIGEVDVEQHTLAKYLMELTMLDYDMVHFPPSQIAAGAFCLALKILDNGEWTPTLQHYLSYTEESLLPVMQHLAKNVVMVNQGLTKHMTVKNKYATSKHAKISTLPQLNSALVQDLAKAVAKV

Jurkat = assay: In vitro proliferation assay (MTT), Jurkat; format: cell-based; details: Homo sapiens, MTT assay, value (SD, n) where given, read-out: Jurkat Leuk. (IC50 µM)
Summary of the method: (§2)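 Overnight-recovered cultures (1000–2500 cells/well) were treated with compound for 3 days and then given MTT at 37 C for 2–4 hr. Dye was extracted with DMSO and read at 570 nm. IC50s were fitted to the absorbance-versus-concentration data.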

HL-60 = assay: In vitro proliferation assay (MTT), HL-60; format: cell-based; details: Homo sapiens, HL-60; MTT assay; value (SD, n) where given; read-out: HL-60 Leuk. (IC50 µM)
Summary of the method: as §2

cdk4/cyclin D1 = cdk4/cyclin D1 (Homo sapiens, UniProt P11802); assay: Cyclin-dependent kinase assay, cdk4/cyclin D1; format: biochemical; details: cyclin D1/cdk4; GST-pRb substrate, 10 µM ATP
Sequence of cdk4/cyclin D1 (P11802 whole entry): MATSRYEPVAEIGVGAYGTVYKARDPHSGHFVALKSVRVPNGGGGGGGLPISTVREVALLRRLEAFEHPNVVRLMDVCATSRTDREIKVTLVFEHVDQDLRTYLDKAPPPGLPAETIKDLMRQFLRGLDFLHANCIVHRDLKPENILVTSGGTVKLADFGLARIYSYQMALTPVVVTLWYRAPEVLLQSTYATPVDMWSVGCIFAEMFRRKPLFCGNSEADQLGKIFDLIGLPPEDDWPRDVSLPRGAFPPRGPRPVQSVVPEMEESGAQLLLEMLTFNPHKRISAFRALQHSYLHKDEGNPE
Sequence of cdk4/cyclin D1 (P24385 whole entry partner): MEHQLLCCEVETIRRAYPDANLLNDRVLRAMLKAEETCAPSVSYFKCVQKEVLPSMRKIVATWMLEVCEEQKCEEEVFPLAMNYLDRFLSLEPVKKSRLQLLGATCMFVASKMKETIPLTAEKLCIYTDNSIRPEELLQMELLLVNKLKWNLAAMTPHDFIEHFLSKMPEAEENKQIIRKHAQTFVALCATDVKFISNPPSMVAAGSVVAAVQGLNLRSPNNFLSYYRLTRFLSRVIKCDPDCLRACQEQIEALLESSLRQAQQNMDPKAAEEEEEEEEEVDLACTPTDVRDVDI

Colo-205 = assay: In vitro proliferation assay (MTT), Colo-205; format: cell-based; details: Homo sapiens, COLO 205; MTT assay; value (SD, n) where given; read-out: Colo-205 Colon (IC50 µM)
Summary of the method: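 After 3 days of compound exposure, MTT was added to Colo-205 cultures for 2–4 h at 37 °C. Formazan was dissolved in DMSO and absorbance read at 570 nm. Cells had been plated at 1000–2500/well and left to recover overnight; IC50 values came from the raw readings.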

PC-3 = assay: In vitro proliferation assay (MTT), PC-3; format: cell-based, human; details: Homo sapiens, PC-3, MTT assay; value (SD, n) where given; read-out: PC-3 Prostate (IC50 µM)
Summary of the method: as §1

NCI-H460 = assay: In vitro proliferation assay (MTT), NCI-H460; format: cell-based; details: Homo sapiens, NCI-H460; MTT assay; value (SD, n) where given; read-out: H-460 Lung (IC50 µM)
Summary of the method: as §2

IC50 (cdk2/cyclin E)	IC50 (MDA-MB-435)	IC50 (cdk1/cyclin B)	IC50 (Jurkat)	IC50 (HL-60)	IC50 (cdk4/cyclin D1)	IC50 (Colo-205)	IC50 (PC-3)	IC50 (NCI-H460)	SMILES
48 nM	0.22 µM	137 nM	0.53 µM	< 0.02 µM	673 nM	0.2 µM	0.23 µM	0.33 µM	N[C@H]1CC[C@H](Nc2nc(NC3CCN(C(=O)Nc4ccc(F)cc4C(F)(F)F)CC3)c3ncn(C4CCCC4)c3n2)CC1 [compound 202, trans-4-[2-(4-Amino-cyclohexylamino)-9-cyclopentyl-9H-purin-6-ylamino]-piperidine-1-carboxylic acid (4-fluoro-2-trifluoromethyl-phenyl)-amide dihydrochloride]
51 nM	0.22 µM	10 nM	0.5 µM	< 0.02 µM	733 nM	0.17 µM	0.3 µM	0.54 µM	N[C@H]1CC[C@H](Nc2nc(NC3CCN(C(=O)Nc4ccc(F)c(C(F)(F)F)c4)CC3)c3ncn(C4CCCC4)c3n2)CC1 [compound 203, trans-4-[2-(4-Amino-cyclohexylamino)-9-cyclopentyl-9H-purin-6-ylamino]-piperidine-1-carboxylic acid (4-fluoro-3-trifluoromethyl-phenyl)-amide dihydrochloride]
46 nM	0.11 µM	50 nM	0.13 µM	0.02 µM	44 nM	0.03 µM	0.13 µM	0.14 µM	N[C@H]1CC[C@H](Nc2nc(NC3CCN(C(=O)Nc4ccccc4F)CC3)c3ncn(C4CCCC4)c3n2)CC1 [compound 207, trans-4-[2-(4-Amino-cyclohexylamino)-9-cyclopentyl-9H-purin-6-ylamino]-piperidine-1-carboxylic acid (2-fluoro-phenyl)-amide dihydrochloride]
34 nM	0.17 µM	13 nM	0.13 µM	< 0.02 µM	50 nM	0.05 µM	0.26 µM	0.29 µM	N[C@H]1CC[C@H](Nc2nc(NC3CCN(C(=O)Nc4ccc(Cl)c(Cl)c4)CC3)c3ncn(C4CCCC4)c3n2)CC1 [compound 209, trans-4-[2-(4-Amino-cyclohexylamino)-9-cyclopentyl-9H-purin-6-ylamino]-piperidine-1-carboxylic acid (3,4-dichloro-phenyl)-amide dihydrochloride]

From patent EP1377579B1 (Aventis Pharmaceuticals Inc., priority 2000, dated 2002)
